pIC50: −log10 of the molar value.
Tests used:
[1] = biological target: T1, testosterone (T) production in NCI-H295R cells (Homo sapiens, UniProt P05108); assay: H295R Steroid Biosynthesis Inhibition Assay - inhibition of testosterone (T) production in NCI-H295R cells; format: cell-based; conditions: 48 h, LC-MS/MS, read-out: Inh. of T IC50
T1 construct: testosterone measured by LC-MS/MS as downstream steroid
T1 sequence (P05108 40-521): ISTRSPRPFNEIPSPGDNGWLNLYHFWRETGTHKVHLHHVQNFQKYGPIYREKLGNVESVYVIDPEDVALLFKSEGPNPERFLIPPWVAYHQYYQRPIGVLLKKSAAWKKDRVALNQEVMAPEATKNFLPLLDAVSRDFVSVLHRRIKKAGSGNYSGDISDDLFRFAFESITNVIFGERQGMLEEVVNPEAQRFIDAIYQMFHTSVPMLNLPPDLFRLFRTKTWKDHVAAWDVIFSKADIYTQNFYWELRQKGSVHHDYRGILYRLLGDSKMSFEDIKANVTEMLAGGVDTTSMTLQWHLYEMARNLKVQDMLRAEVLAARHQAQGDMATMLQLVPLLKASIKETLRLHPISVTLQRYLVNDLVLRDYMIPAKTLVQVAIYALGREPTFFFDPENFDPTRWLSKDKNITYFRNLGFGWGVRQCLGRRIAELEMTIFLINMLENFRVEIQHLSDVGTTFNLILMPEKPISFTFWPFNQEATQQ
Description: (§1) Steroid Biosynthesis Inhibition by test compounds in NCI-H295R cells (ATCC) was studied by measuring the cellular production of pregnenolone (P) catalyzed by CYP11A1 and the downstream steroid, testosterone (T). Cells were cultured in Dulbecco's modified eagle's medium F12 (DMEM/F12) with phenol red (Gibco, Cat. No. 11330032) supplemented with 2% UltroserG (Pall, Cat. No. 15950-017, USA), 1% ITS-Premix and 1% penicillin and streptomycin (Hyclone, Cat. No. SV30010, USA). Prior to the assay, cells were thawed and passed 4 times. The maximal passage number used for the assay was 10. For this assay, DMEM/F12 without phenol red supplemented with 10% charcoal-stripped fetal bovine serum (VivaCell, Cat. No. C3830-0500, USA) were used. In a 96-well plate, 60,000 cells/well were plated (90 μL/well) and incubated for 24 h. Test compounds, diluted in a serial dilution ranging from 1000 nM to 0.15 nM in the assay medium, were added to the plate. After 48 h of incubation, solution from each well were collected and transferred to individual 1.5 mL centrifuge tubes, and then 5 ng/mL deuterated testosterone (D3-testosterone) and 50 ng/mL deuterated pregnenolone (D4-pregnenolone) in 200 μL acetonitrile were added. After vigorously mixing for 5 min, the mixture was centrifuged at 12,700 rpm for 15 min. An aliquot of 250 μL supernatant was collected and dried under N2 stream. After addition of 150 μL Methanol:water (1:1, v/v) to the dried product, 50 μL sample of this solution was injected into the LC-MS/MS system for analysis.
(§2) The half-maximal inhibitory concentration (IC50) for steroid biosynthesis inhibition was determined by curve-fitting with the 4-variable inhibitory dose response equation using GraphPad Prism software.
(§3) Testosterone and pregnenolone were analyzed using Shimadzu LC30AD HPLC system (Shimadzu, Kyoto, Japan) coupled with AB SCIEX Qtrap 5500 triple quadrupole mass spectrometer (AB Sciex, Framingham, MA, USA) via ESI interface in the positive ionization mode. An ACQUITY UPLC BEH Shield RP18 column (1.7 μm, 2.1×50 mm, Milford, MA, USA) maintained at 40° C. was used to separate analytes and IS form the sample matrix.
(§4) The mobile phase was a mixture of 10 mM ammonium acetate in water containing 0.2% formic acid (A) and methanol containing 0.2% formic acid (B) at a flow rate of 0.6 mL/min. The gradient program was set as follows: from 0 min to 0.5 min, 60% B; from 0.5 min to 3.5 min, 90% B; from 3.5 min to 4.5 min, 90% B; from 4.51 min to 5.0 min, 60% B. The injection volume was […].
(§5) The MS/MS parameters were set as follows: ion spray voltage, 5500 V; curtain gas, 35 psi; Gas 1, 55 psi; Gas 2: 55 psi; temperature, […]. The optimized multiple reaction monitoring (MRM) fragmentation transitions and MS parameters of each analyte are summarized in Table 1.

CYP11A1 = biological target: T2, CYP11A1 (Homo sapiens, UniProt P05108); assay: H295R Steroid Biosynthesis Inhibition Assay - inhibition of pregnenolone (P) production catalyzed by CYP11A1 in NCI-H295R cells; format: cell-based; conditions: 48 h, LC-MS/MS, read-out: Inh. of P IC50
T2 construct: measuring the cellular production of pregnenolone (P) catalyzed by CYP11A1; host or cells: NCI-H295R
T2 sequence (P05108 40-521): T1 sequence (P05108 40-521)
Description: as §1, §2, §3, §4, §5

SMILES | pIC50 [1] | pIC50 (CYP11A1)
CS(=O)(=O)N1C[C@@H]2[C@@H](COc3coc(CN4Cc5ccccc5C4)cc3=O)[C@@H]2C1 [Compound 1, 2-(isoindolin-2-ylmethyl)-5-(((1R,5S,6r)-3-(methylsulfonyl)-3-azabicyclo[3.1.0]hexan-6-yl)methoxy)-4H-pyran-4-one] | 7.00 to 7.39 | ≥ 7.40
CS(=O)(=O)N1CCC(COc2coc(CN3CCn4cccc4C3)cc2=O)CC1 [Compound 3] | 7.00 to 7.39 | ≥ 7.40
CS(=O)(=O)N1CCC(COc2coc(CN3CCn4c(Cl)ccc4C3)cc2=O)CC1 [Compound 4] | 7.00 to 7.39 | ≥ 7.40
CS(=O)(=O)N1CCC(COc2coc(CN3CCc4sccc4C3)cc2=O)CC1 [Compound 5] | ≤ 7.00 | ≤ 7.00
Cc1oc(CN2Cc3ccccc3C2)cc(=O)c1OCC1CCN(S(C)(=O)=O)CC1 [Compound 6] | 7.00 to 7.39 | ≥ 7.40
CS(=O)(=O)N1CCC(COc2ccc(C3(N4Cc5ccccc5C4)CC3)c3cccnc23)CC1 [Compound 10] | ≤ 7.00 | 7.00 to 7.40
CC(Oc1ccc(CN2Cc3ccccc3C2)c2cccnc12)C1CCN(S(C)(=O)=O)CC1 (stereo not drawn) [Compound 11] | 7.00 to 7.39 | ≥ 7.40
CS(=O)(=O)N1CCCC(c2cc3oc(CN4Cc5ccccc5C4)cc(=O)c3o2)C1 (stereo not drawn) [Compound 16] | ≤ 7.00 | 7.00 to 7.40
CS(=O)(=O)N1CCC(c2cc3oc(CN4CCc5ccccc5C4)cc(=O)c3o2)CC1 [Compound 21] | ≤ 7.00 | ≤ 7.00
O=c1cc(CN2Cc3ccccc3C2)oc2cc(C3CCC(F)(F)CC3)oc12 [Compound 26] | ≤ 7.00 | 7.00 to 7.40
C[C@]1(O)CC[C@@H](c2cc3oc(CN4Cc5ccccc5C4)cc(=O)c3o2)CC1 [Compound 28] | ≤ 7.00 | ≥ 7.40
CC(c1cc(=O)c2oc([C@H]3CC[C@H](O)CC3)cc2o1)N1Cc2ccccc2C1 (stereo partly drawn) [Compound 31] | ≥ 7.40 | ≥ 7.40
CC(C)(O)[C@H]1CC[C@H](c2cc3oc(CN4Cc5ccccc5C4)cc(=O)c3o2)CC1 [Compound 32] | ≥ 7.40 | 7.00 to 7.40
O=c1cc(CN2Cc3ccccc3C2)oc2cc([C@H]3CC4CCC(C3)[C@H]4O)oc12 [Compound 33] | 7.00 to 7.39 | 7.00 to 7.40
O=c1cc(CN2Cc3ccccc3C2)oc2cc(C34CCC(O)(CC3)CC4)oc12 [Compound 34] | ≥ 7.40 | ≥ 7.40
O=c1cc(CN2Cc3ccccc3C2)oc2cc(C3CCC(O)C3)oc12 (stereo not drawn) [Compound 35] | 7.00 to 7.39 | ≥ 7.40
O=c1cc(CN2Cc3ccccc3C2)oc2cc([C@@H]3CCC[C@@H](O)C3)oc12 [Compound 36] | ≤ 7.00 | 7.00 to 7.40
O=c1cc(CN2Cc3ccccc3C2)oc2cc([C@H]3CC[C@@](O)(C(F)(F)F)CC3)oc12 [Compound 37] | ≥ 7.40 | 7.00 to 7.40
CO[C@H]1CC[C@H](c2cc3oc(CN4Cc5ccccc5C4)cc(=O)c3o2)CC1 [Compound 38] | ≥ 7.40 | ≥ 7.40
O=c1cc(CN2Cc3ccccc3C2)oc2cc(C3C4CC(O)CC43)oc12 (stereo not drawn) [Compound 39] | ≥ 7.40 | ≥ 7.40
O=c1cc(CN2Cc3ccccc3C2)oc2cc([C@H]3CC[C@@]4(O)CC4C3)oc12 (stereo partly drawn) [Compound 40] | ≥ 7.40 | ≥ 7.40
C[C@]1(c2cc3oc(CN4Cc5ccccc5C4)cc(=O)c3o2)CC[C@H](O)CC1 [Compound 41] | ≥ 7.40 | ≥ 7.40
N#C[C@]1(c2cc3oc(CN4Cc5ccccc5C4)cc(=O)c3o2)CC[C@H](O)CC1 [Compound 43] | 7.00 to 7.39 | ≥ 7.40
CS(=O)(=O)N[C@H]1CC[C@H](c2cc3oc(CN4Cc5ccccc5C4)cc(=O)c3o2)CC1 [Compound 44] | ≥ 7.40 | ≥ 7.40
COC(=O)N[C@H]1CC[C@H](c2cc3oc(CN4Cc5ccccc5C4)cc(=O)c3o2)CC1 [Compound 45] | ≥ 7.40 | ≥ 7.40

Next, values leading:

pIC50 [1] | pIC50 (CYP11A1) | SMILES
≥ 7.40 | ≥ 7.40 | O=c1cc(CN2Cc3ccccc3C2)oc2cc([C@@H]3CCC[C@@H](O)CC3)oc12 (racemic) [Compound 42]
≥ 7.40 | ≥ 7.40 | O=c1cc(CN2Cc3ccccc3C2)occ1OC[C@H]1CC[C@H](O)CC1 [Compound 2]
≥ 7.40 | ≥ 7.40 | CS(=O)(=O)N1CCC(COc2ccc(CN3Cc4ccccc4C3)c3ccccc23)CC1 [Compound 7]
≥ 7.40 | ≥ 7.40 | CS(=O)(=O)N1CCC(COc2ccc(CN3CCc4ccccc4C3)c3cccnc23)CC1 [Compound 8]
≥ 7.40 | ≥ 7.40 | CC(c1ccc(OCC2CCN(S(C)(=O)=O)CC2)c2ncccc12)N1Cc2ccccc2C1 (stereo not drawn) [Compound 9]
≥ 7.40 | ≥ 7.40 | CC(c1ncc(OCC2CCN(S(C)(=O)=O)CC2)c2ncccc12)N1Cc2ccccc2C1 (stereo not drawn) [Compound 12]
≥ 7.40 | ≥ 7.40 | CS(=O)(=O)N1C[C@@H]2[C@H](C1)[C@H]2c1cc2oc(CN3Cc4ccccc4C3)cc(=O)c2o1 [Compound 13, 5-(isoindolin-2-ylmethyl)-2-((1R,5S,6r)-3-(methylsulfonyl)-3-azabicyclo[3.1.0]hexan-6-yl)-7H-furo[3,2-b]pyran-7-one]
≥ 7.40 | ≥ 7.40 | CS(=O)(=O)N1CCC(c2cc3oc(CN4Cc5ccccc5C4)cc(=O)c3o2)CC1 [Compound 14]
≥ 7.40 | ≥ 7.40 | COC(=O)N1CCC(c2cc3oc(CN4Cc5ccccc5C4)cc(=O)c3o2)CC1 [Compound 15]
≥ 7.40 | ≥ 7.40 | CS(=O)(=O)N1CCC(c2cc3oc(CN4Cc5ccc(F)cc5C4)cc(=O)c3o2)CC1 [Compound 17]
≥ 7.40 | ≥ 7.40 | Cc1ccc2c(c1)CN(Cc1cc(=O)c3oc(C4CCN(S(C)(=O)=O)CC4)cc3o1)C2 [Compound 18]
≥ 7.40 | ≥ 7.40 | COc1ccc2c(c1)CN(Cc1cc(=O)c3oc(C4CCN(S(C)(=O)=O)CC4)cc3o1)C2 [Compound 19]
≥ 7.40 | ≥ 7.40 | CS(=O)(=O)N1CCC(c2cc3oc(CN4Cc5ccc(C(F)(F)F)cc5C4)cc(=O)c3o2)CC1 [Compound 20]
≥ 7.40 | ≥ 7.40 | CS(=O)(=O)N1CCC2(CC1)CC(c1cc3oc(CN4Cc5ccccc5C4)cc(=O)c3o1)C2 [Compound 22]
≥ 7.40 | ≥ 7.40 | CS(=O)(=O)N1CC2(CC(c3cc4oc(CN5Cc6ccccc6C5)cc(=O)c4o3)C2)C1 [Compound 23]
≥ 7.40 | ≥ 7.40 | O=c1cc(CN2Cc3ccccc3C2)oc2cc(C3CC4(CC(O)C4)C3)oc12 (stereo not drawn) [Compound 24]
≥ 7.40 | ≥ 7.40 | O=c1cc(CN2Cc3ccccc3C2)oc2cc(C3CC4(COC4)C3)oc12 [Compound 25]
≥ 7.40 | ≥ 7.40 | C[C@]1(O)CC[C@H](c2cc3oc(CN4Cc5ccccc5C4)cc(=O)c3o2)CC1 [Compound 27]
≥ 7.40 | ≥ 7.40 | O=c1cc(CN2Cc3ccccc3C2)oc2cc([C@H]3CC[C@H](O)CC3)oc12 [Compound 29]
≥ 7.40 | ≥ 7.40 | O=c1cc(CN2Cc3ccccc3C2)oc2cc([C@@H]3CC[C@@H](O)[C@@H](F)C3)oc12 [Compound 30]
